Broadly, the pIC50 is the negative decadic logarithm of the IC50, by convention in mol/L.

pIC50: −log10 of the molar value.

The assay deals with T1, Pol-β (Homo sapiens, UniProt P06746).
T1 construct: gene POLB; purified protein
In words: strand-displacement synthesis on […]-labelled 63-mer F-DNA, denaturing gel. The following applies: pH 7.5, 30 mM KCl, 8 mM MgCl2, 37 °C, 30 min; 5 nM Pol-β, 2 nM APE1 (pre-incision), 2.5 nM DNA. The format is biochemical.

“[5-(4-amino-6-iodo-2-oxo-5,6-dihydropyrimidin-1-yl)-3-hydroxy-oxolan-2-yl] methoxyphosphonic acid [NSC-124854]”: the pIC50 was 5.28.

These data come from paper PMC3032781, “DNA Polymerase β as a Novel Target for Chemotherapeutic Intervention of Colorectal Cancer” (PLoS ONE, 2011).
